# Laboratory results reported in PMC3664642, “A Peptide against Soluble Guanylyl Cyclase α1: A New Approach to Treating Prostate Cancer” (PLoS ONE, 2013).
# Entries after “also recorded” stand apart in the source; their conditions may differ. Where no end group is shown, it is not given here.
# Experiments:
# [1] = biological target: T1, sGCα1 (Homo sapiens, UniProt Q02108); experiment: Biotin pulldown and competition from LNCaP extract; format: binding; details: competition, 150 µg unlabeled peptide vs 5 µg Peptide A-8R-Biotin; Fig. 2B
# T1 sequence (Q02108 1-690): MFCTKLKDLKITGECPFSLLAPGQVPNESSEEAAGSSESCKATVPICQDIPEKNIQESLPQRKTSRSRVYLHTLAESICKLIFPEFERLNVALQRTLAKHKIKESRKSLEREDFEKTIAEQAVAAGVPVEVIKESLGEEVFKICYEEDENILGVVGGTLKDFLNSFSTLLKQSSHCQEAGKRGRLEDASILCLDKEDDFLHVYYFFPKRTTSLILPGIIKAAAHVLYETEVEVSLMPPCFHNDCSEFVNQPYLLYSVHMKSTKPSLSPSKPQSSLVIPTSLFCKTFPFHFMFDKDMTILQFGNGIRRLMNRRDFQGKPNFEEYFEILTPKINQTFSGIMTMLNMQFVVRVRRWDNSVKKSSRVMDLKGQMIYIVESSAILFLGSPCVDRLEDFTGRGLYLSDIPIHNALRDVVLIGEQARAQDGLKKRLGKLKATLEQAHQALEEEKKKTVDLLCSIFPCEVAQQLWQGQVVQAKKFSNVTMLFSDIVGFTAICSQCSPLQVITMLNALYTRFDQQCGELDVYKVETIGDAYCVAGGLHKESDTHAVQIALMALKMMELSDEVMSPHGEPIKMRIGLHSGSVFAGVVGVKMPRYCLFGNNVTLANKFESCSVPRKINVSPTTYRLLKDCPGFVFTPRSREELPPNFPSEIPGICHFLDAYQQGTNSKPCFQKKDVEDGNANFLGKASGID
# Method: Immunoprecipitation (IP) in LNCaP cells was performed as described previously. Whole-cell extracts from LNCaP cells were subjected to IP using Protein A/G plus Agarose (Santa Cruz). IP antibodies were against sGCα1 (Cayman Chemical), sGCβ1 (Cayman Chemical), or rabbit IgG (Santa Cruz) as control. For Biotin pulldown, 5 µg Biotin-labeled Peptide A was incubated with NeutrAvidin Agarose Resin (Thermo Scientific) for 3 hours at 4°C, after which whole-cell extract from LNCaP cells was added and incubated overnight at 4°C. Resin was washed and eluted with SDS Sample buffer, followed by SDS-PAGE gel electrophoresis.
# Figure 2 Peptide A-8R interacts with sGCα1 in prostate cancer cells. (A) LNCaP cells were treated with 25 µM Biotin-labeled Peptide A-8R for 2 hrs and subjected to immunocytochemistry using anti-sGCα1 or anti-Biotin antibody to measure subcellular co-localization of endogenous sGCα1 and Peptide A-8R. DAPI was used to stain nuclei. (B) LNCaP cytosolic extracts were incubated with Peptide A-8R-Biotin and subjected to purification using streptavidin-agarose. This pull-down experiment was repeated with competing excess amount of unlabeled Peptide C-8R or Peptide A-8R. In both cases Western blotting was used to measure the co-purification of sGCα1. […] Co-purified Peptide A-8R-FITC was quantified by measuring fluorescence signal emission. […] Cell number was measured after 0–48 hrs of incubation. […]
# [2] = test system: ROS generation in LNCaP cells; experiment: ROS generation (CM-H2DCFDA), LNCaP/C81 cells; format: cell-based; details: Fig. 4A
# Method: Intracellular ROS levels were evaluated using the fluorescent probe 5-(and-6)-chloromethyl-2′,7′-dichlorodihydrofluorescein diacetate (CM-H2DCFDA) (Invitrogen). After treatments with Peptide A-8R, C81 cells were loaded with 20 µM CM-H2DCFDA and incubated at 37°C for 30 min in the dark. Cells were then washed with PBS and fluorescence was measured at the excitation and emission wavelengths of 490 and 535 nm, respectively, using a multi-well fluorescence plate reader. For NAC (N-acetyl cysteine) (Sigma) rescue experiment, cells were pretreated with 1 or 5 mM NAC for 2 hours before adding Peptide A-8R.
# Figure 4 Peptide A-8R kills prostate cancer cells by mediating ROS generation. (A) C81 cells were treated with Vehicle or different µMolar concentrations of Peptide A-8R and without or with 0–5 mM NAC and monitored for ROS generation after 0–30 min as measured by fluorescence intensity (FI). Bar graphs represent averages of three independent experiments plus standard deviations. Note that asterisks on bar graphs found with NAC are compared to equivalent data without NAC. (B) C81 cells were treated with Vehicle or different concentrations of Peptide A-8R, as shown, and 0–5 mM NAC, as shown, and monitored for cell number after 0–6 days of incubation as measured by MTT assay. Data points represent averages of three independent experiments plus standard deviations. Asterisks indicate statistical significance (P<0.04). (C) C81 cells were treated with Vehicle or different concentrations of Peptide A-8R, as shown, and with or without 5 mM NAC, as shown, and monitored DNA damage after 1 hr incubation as measured by Comet assay.
# [3] = test system: LNCaP xenograft tumors; experiment: LNCaP mouse xenograft tumor study; format: in vivo; details: direct intratumoral injection; three animals per treatment; P<0.0005; Fig. S8
# Method: […] When tumor sizes reached 200 mm^3, 50 µL of Peptide A-8R (40 mg Peptide A-8R/Kg of animal) or Vehicle (DMSO) was directly injected into the tumors every other day. Injections were stopped after 5 times and tumors were measured every 3 days. Mice were euthanized after 3 weeks and tumors were excised. All procedures were approved by the University of Toledo Division of Lab Animal Recourses (DLAR). Protein extracts were prepared by boiling the tumor tissue in 3× SDS buffer, and evaluated by SDS-PAGE gel.
# Mouse xenograft tumors derived from LNCaP cells were treated with Vehicle or Peptide A-8R, after which they were allowed to grow for an additional three weeks without treatment. Data points represent average tumor size of three animals for each treatment plus standard deviations. Note that there is a statistical difference (P<0.0005) in average tumor size for each day of tumor measurement. Arrow represents day of last injection of Vehicle or Peptide A-8R. (TIF) Click here for additional data file.
substance,measurement,setting,value
Ac-TFCKAFPFHIIRRRRRRRR [Peptide A-8R],inhibition of Peptide A-8R-Biotin interaction with sGCα1,[1],significantly inhibited Peptide A-8R-Biotin interaction with sGCα1
same,ROS induction,"[2]; 0–30 min, fluorescence 490/535 nm, S5B, averages of three independent experiments",significant ROS induction in LNCaP cells within 30 minutes
same,ROS generation at 50 µM,[2]; 50 µM,decreased with 50 µM; also recorded: minimal ROS induction; also recorded: lowest induction of ROS
same,"ROS generation, concentration dependence",[2]; 10 to 25 µM,rose when Peptide A-8R concentration was increased from 10 to 25 µM
same,"anti-tumor activity, LNCaP xenograft",[3],able to stop tumor growth; also recorded: strong anti-tumor activity; also recorded: blocks the growth of LNCaP prostate tumors
